The values below come from US8563723B2, “Arylsulfonyl pyrazoline carboxamidine derivatives as 5-HT6 antagonists” (Abbott Healthcare Products, B.V., priority 2008, dated 2013).

The target of data set [1] is T1, 5-HT6 receptor (Homo sapiens, UniProt P50406). As to the kind of experiment: In vitro functional activity ((ant)agonism) on human 5-HT6 receptors, CHO-human-5HT6-Aequorin assay. Details: host or cells: CHO AequoScreen recombinant cell line (expresses mitochondrial targeted apo-Aequorin). Format: cell-based.
T1 sequence (P50406 whole entry): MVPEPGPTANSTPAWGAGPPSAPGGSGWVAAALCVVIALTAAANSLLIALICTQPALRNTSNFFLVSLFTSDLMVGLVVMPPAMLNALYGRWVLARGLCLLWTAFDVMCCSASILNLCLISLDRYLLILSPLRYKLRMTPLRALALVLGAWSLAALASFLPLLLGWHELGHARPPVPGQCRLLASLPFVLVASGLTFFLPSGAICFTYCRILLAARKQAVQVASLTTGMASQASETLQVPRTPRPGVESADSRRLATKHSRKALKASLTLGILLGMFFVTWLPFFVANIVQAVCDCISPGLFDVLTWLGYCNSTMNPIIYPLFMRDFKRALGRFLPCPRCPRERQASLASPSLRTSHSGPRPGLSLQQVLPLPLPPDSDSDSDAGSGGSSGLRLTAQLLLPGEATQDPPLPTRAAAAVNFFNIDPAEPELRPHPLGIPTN
Experimental: Human-5-HT6-Aequorin cells express mitochondrial targeted apo-Aequorin. Cells have to be loaded with coelanterazine, in order to reconstitute active Aequorin. […] This luminescent response is dependent on the agonist concentration. Luminescence is measured using the MicroBeta Jet (Perkin Elmer). Agonistic effects of compounds are expressed as pEC50. […] Compounds were tested at a 5 log concentration range, and 3 independent experiments were performed in duplicate.
Data set [2] has as its target T1, 5-HT6 receptor. As to the kind of experiment: In vitro affinity for human 5-HT6 receptors ([3H]-LSD binding, CHO cell membranes). The arrangement: host or cells: CHO/Gα16/mtAEQ/h5HT6-A1 cells. To be noted: read-out: 5-HT6 pKi (converted).
Experimental: In Vitro Affinity for Human 5-HT6 Receptors
Affinity for human 5-HT6 receptors was measured in a membrane preparation of CHO-cells transfected with human 5-HT6 receptors by binding studies using [^3H]-N-Methyl-Lysergic acid diethylamide ([^3H]-LSD) as ligand. […] CHO/Gα16/mtAEQ/h5HT6-A1 cells were grown in T-flasks in CHO-S-SFM II medium (Gibco BRL), supplemented with 1% dialysed FCS, 2 mM L-glutamine, Geneticin 500 μg/ml and Zeocin 200 μg/ml. […] After thawing cells were centrifuged during 3 minutes at 1500 g at 4° C. […] The assay was established so as to achieve steady state conditions and to optimize specific binding. For the 5-HT6 receptor, membranes from 5.10^5 cells were incubated with 5.0 nM [^3H]-LSD at 37° C. for 30 minutes. Nonspecific binding was determined using 10^−5 M serotonin. Assays were terminated by vacuum filtration through glass fibre filters (GF/B) which had been pretreated with 0.5% polyethyleneimine. Total and bound radioactivity was determined by liquid scintillation counting. […] Compounds were tested at a 4 log concentration range; all determinations were performed as triplicates. IC50 values were determined by non-linear regression analysis using Hill equation curve fitting. The inhibition constants (Ki-values) were calculated from the Cheng-Preushoff equation: Ki=IC50:(1+L/Kd) wherein L represents the concentration [^3H]-LSD in the assay, and Kd its affinity for the receptor. Results are expressed as pKi-values, means±SD of at least three separate experiments.
A short description of data set [3]: in vitro. To be noted: rat, hepatocytes.
Data set [4] in a line: in vitro. To be noted: human, hepatocytes.
[5] abbreviates: antagonism of 10^-8 M α-methylserotonin induced luminescence, main compound table, read-out: 5-HT6 pA2 (converted).
Setting [6] is: [3H]-LSD, membranes of CHO cells with human 5-HT6, main compound table.
The mark [7] stands for this setting: antagonism of 10^-8 M α-methylserotonin induced luminescence, main compound table.
Where [8] appears, read: [3H]-LSD, membranes of CHO cells with human 5-HT6, comparison table Example 6.
[9] abbreviates: antagonism of 10^-8 M α-methylserotonin induced luminescence, comparison table Example 6.

The term half-life denotes the time in which the quantity being followed falls by half. A lower half-life goes with fast loss. For orientation: melting point means the temperature of the solid-liquid transition.

Read-outs that look alike come from different tables or passages of the source.

For `CCN/C(=N\S(=O)(=O)c1ccc(N)cc1)N1CC(CC)C=N1` (single isomer, unassigned) [Compound 1], the Kb at 5-HT6 receptor [1] (setting [5]) is 2 nM. The Ki at 5-HT6 receptor [2] (setting [6]) was 3.16 nM.

As for `CCN/C(=N\S(=O)(=O)c1ccc(N)cc1)N1CC(CC)C=N1` (single isomer, unassigned) [Compound 2], at 5-HT6 receptor [2] (setting [6]), the Ki was 10 nM.

For `CCN/C(=N\S(=O)(=O)c1ccc(N)c(Cl)c1)N1CC(CC)C=N1` (single isomer, unassigned) [Compound 11], the Kb at 5-HT6 receptor [1] (setting [5]) is 0.501 nM. The Ki on 5-HT6 receptor [2] (setting [6]) was 1 nM.

Consider `CCN/C(=N\S(=O)(=O)c1ccc(N)c(Cl)c1)N1CC(CC)C=N1` (single isomer, unassigned) [Compound 12], for which the Kb at 5-HT6 receptor [1] (setting [5]) is 1 nM. Besides, the Ki at 5-HT6 receptor [2] (setting [6]) is 1.58 nM.

For the compound `CCN/C(=N\S(=O)(=O)c1ccc(O)cc1)N1CC(CC)C=N1` (single isomer, unassigned) [Compound 20], on 5-HT6 receptor [1] (setting [5]), the Kb was 1 nM. The Ki on 5-HT6 receptor [2] (setting [6]) is 2 nM.

Take `CCN/C(=N\S(=O)(=O)c1ccc(O)cc1)N1CC(CC)C=N1` (single isomer, unassigned) [Compound 21]: the Kb on 5-HT6 receptor [1] (setting [5]) is 6.31 nM. The Ki at 5-HT6 receptor [2] (setting [6]) is 10 nM.

Turning to `CCN/C(=N\S(=O)(=O)c1ccc(N)cc1)N1CC(C)(C)C=N1` [Compound 3, 4-Amino-N-[(4,4-dimethyl-4,5-dihydro-pyrazol-1-yl)-ethylamino-methylene]-benzenesulfonamide], on 5-HT6 receptor [1] (setting [7]), the “5-HT6 pA2” value amounted to 7.6. Further, the figures for the half-life at 1 μg/ml in “in vitro [3]” and in “in vitro [4]” were 71 min and above 1000 min, respectively. Besides, the Ki on 5-HT6 receptor [2] (setting [8]) and on 5-HT6 receptor [2] (setting [6]) was 12.6 nM throughout.

`CCN/C(=N\S(=O)(=O)c1ccc(N)cc1)N1CC2(C=N1)CCCC2` [Compound 4, 4-Amino-N-[(2,3-diaza-spiro[4.4]non-3-en-2-yl)-ethylamino-methylene]benzene-sulfonamide] showed a melting point of 141 to 142 °C. The Kb at 5-HT6 receptor [1] (5-HT6 pA2, antagonism of 10^-8 M α-methylserotonin induced luminescence, main compound table) is 5.01 nM. Besides, the Ki at 5-HT6 receptor [2] (setting [6]) is 10 nM.

Take `N/C(=N\S(=O)(=O)c1ccc(N)cc1)N1CC2(C=N1)CCCC2` [Compound 5]: the Kb at 5-HT6 receptor [1] (setting [5]) is 79.4 nM. Further, the Ki on 5-HT6 receptor [2] (setting [6]) is 100 nM.

As for `CCN/C(=N\S(=O)(=O)c1ccc(N)cc1)N1CC2(C=N1)CCOCC2` [Compound 7], the Kb at 5-HT6 receptor [1] (setting [5]) is 25.1 nM. In addition, the Ki at 5-HT6 receptor [2] (setting [6]) was 63.1 nM.

As to `CN/C(=N\S(=O)(=O)c1ccc(N)cc1)N1CC2(C=N1)CCOCC2` [Compound 8], the Kb at 5-HT6 receptor [1] (setting [5]) is 158 nM. The Ki on 5-HT6 receptor [2] (setting [6]) is 200 nM.

In the case of `N/C(=N\S(=O)(=O)c1ccc(N)cc1)N1CC2(C=N1)CCOCC2` [Compound 9], the Kb at 5-HT6 receptor [1] (setting [5]) is 200 nM. Further, on 5-HT6 receptor [2] (setting [6]), the Ki was 251 nM.

`CCN/C(=N\S(=O)(=O)c1ccc(N)c(Cl)c1)N1CC(C)(C)C=N1` [Compound 13, 4-Amino-3-chloro-N-[(4,4-dimethyl-4,5-dihydro-pyrazol-1-yl)-ethylamino-methylene]-benzenesulfonamide]: the Kb on 5-HT6 receptor [1] (setting [5]) was 3.16 nM. Besides, the half-life at 1 μg/ml in “in vitro [3]” was determined as 22 min; in “in vitro [4]” it was 700 min. Besides, the Ki on 5-HT6 receptor [2] (setting [8]) and at 5-HT6 receptor [2] (setting [6]) was 6.31 nM throughout.

For the compound `CCN/C(=N\S(=O)(=O)c1ccc(N)c(Cl)c1)N1CC2(C=N1)CCCC2` [Compound 14], the “5-HT6 pA2” value at 5-HT6 receptor [1] (setting [7]) is 9.0. Also, the half-life at 1 μg/ml in the data set “in vitro [3]” came to 17 min; in “in vitro [4]” it was 51 min. Moreover, the Ki at 5-HT6 receptor [2] (setting [8]) and at 5-HT6 receptor [2] (setting [6]) was 1.58 nM throughout.

As for `CCN/C(=N\S(=O)(=O)c1ccc2c(c1)CCN2)N1CC(CC)C=N1` (stereo not drawn) [Compound 16, 2,3-Dihydro-1H-indole-5-sulfonic acid ethylamino-(4-ethyl-4,5-dihydro-pyrazol-1-yl)-methyleneamide], the Kb on 5-HT6 receptor [1] (setting [5]) was 10 nM. In addition, the Ki at 5-HT6 receptor [2] (setting [6]) is 12.6 nM.

As for `CCN/C(=N\S(=O)(=O)c1ccc2[nH]ccc2c1)N1CC(CC)C=N1` (stereo not drawn) [Compound 18, 1H-Indole-5-sulfonic acid ethylamino-(4-ethyl-4,5-dihydro-pyrazol-1-yl)-methyleneamide], the Ki at 5-HT6 receptor [2] (setting [6]) was 3.98 nM.

As to `CCN/C(=N\S(=O)(=O)c1ccc(O)cc1)N1CC(CC)C=N1` (stereo not drawn) [Compound 19, N-[Ethylamino-(4-ethyl-4,5-dihydro-pyrazol-1-yl)-methylene]-4-hydroxybenzenesulfonamide], the Kb at 5-HT6 receptor [1] (setting [5]) was 2.51 nM. Besides, the half-life at 1 μg/ml in the data set “in vitro [3]” was found to be 19 min; in “in vitro [4]” it was 354 min. Besides, the Ki at 5-HT6 receptor [2] (setting [8]) and at 5-HT6 receptor [2] (setting [6]) was 3.16 nM in each case.

`CCN/C(=N\S(=O)(=O)c1ccc(O)cc1)N1CC2(C=N1)CCCCC2` [Compound 24] came in with a melting point of 140 to 142 °C.

In turn, `CCN/C(=N\S(=O)(=O)c1ccc(O)cc1)N1N=CCC1c1ccccc1` (stereo not drawn) [Compound 25, N-[Ethylamino-(5-phenyl-4,5-dihydro-pyrazol-1-yl)-methylene]-4-hydroxybenzene-sulfonamide] yielded a melting point of 158 to 160 °C.

`CCN/C(=N\S(=O)(=O)c1ccc(O)c(Cl)c1)N1CC(CC)C=N1` (stereo not drawn) [Compound 26, 3-Chloro-N-[ethylamino-(4-ethyl-4,5-dihydro-pyrazol-1-yl)-methylene]-4-hydroxy-benzenesulfonamide]: at 5-HT6 receptor [2] (setting [6]), the Ki is 10 nM.

As for `CCN/C(=N\S(=O)(=O)c1ccc(O)c(Cl)c1)N1CC(C)(C)C=N1` [Compound 27], the Kb at 5-HT6 receptor [1] (setting [5]) is 25.1 nM. Moreover, on 5-HT6 receptor [2] (setting [6]), the Ki is 15.8 nM.

For the compound `CCN/C(=N\S(=O)(=O)c1cccc(N)c1)N1CC(CC)C=N1` (stereo not drawn) [Compound 29], the Kb on 5-HT6 receptor [1] (setting [5]) is 100 nM. Besides, on 5-HT6 receptor [2] (setting [6]), the Ki is 63.1 nM.

`CCN/C(=N\S(=O)(=O)c1cccc(N)c1)N1CC(C)(C)C=N1` [Compound 30, 3-Amino-N-[(4,4-dimethyl-4,5-dihydro-pyrazol-1-yl)-ethylamino-methylene]-benzenesulfonamide]: on 5-HT6 receptor [1] (setting [5]), the Kb is 126 nM. On 5-HT6 receptor [2] (setting [6]), the Ki was 251 nM.

On to `CCN/C(=N\S(=O)(=O)c1cccc(Cl)c1)N1CC(C)(C)C=N1` [Compound 33 from WO 2008/034863, reference compound], for which the “5-HT6 pA2” value on 5-HT6 receptor [1] (setting [9]) is recorded as 7.8. Also, the Ki at 5-HT6 receptor [2] is 25.1 nM.

For `CCN/C(=N\S(=O)(=O)c1ccc2c(c1)NCC2)N1CC(CC)C=N1` (stereo not drawn) [Compound 33, 2,3-Dihydro-1H-indole-6-sulfonic acid ethylamino-(4-ethyl-4,5-dihydro-pyrazol-1-yl)-methyleneamide], at 5-HT6 receptor [2] (setting [6]), the Ki is 501 nM.

For the compound `CCN/C(=N\S(=O)(=O)c1cccc(O)c1)N1CC(C)(C)C=N1` [Compound 36, N-[(4,4-Dimethyl-4,5-dihydro-pyrazol-1-yl)-ethylamino-methylene]-3-hydroxy-benzenesulfonamide], the Kb at 5-HT6 receptor [1] (setting [5]) was 31.6 nM. At 5-HT6 receptor [2] (setting [6]), the Ki was 50.1 nM.

As for `CCN/C(=N\S(=O)(=O)c1ccc(CO)cc1)N1CC2(C=N1)CCCC2` [Compound 40, N-[(2,3-Diaza-spiro[4.4]non-3-en-2-yl)-ethylamino-methylene]-4-hydroxymethyl-benzenesulfonamide], at 5-HT6 receptor [2] (setting [6]), the Ki was 631 nM.

Turning to `CCN/C(=N\S(=O)(=O)c1ccc(C(N)=O)cc1)N1CC(CC)C=N1` (stereo not drawn) [Compound 43, 4-{[Ethylamino-(4-ethyl-4,5-dihydro-pyrazol-1-yl)-methylene]-sulfamoyl}-benzamide], the melting point was in the range of 146 to 149 °C.

`CCN/C(=N\S(=O)(=O)c1cccc(C(N)=O)c1)N1CC(CC)C=N1` (stereo not drawn) [Compound 44, 3-{[Ethylamino-(4-ethyl-4,5-dihydro-pyrazol-1-yl)-methylene]-sulfamoyl}-benzamide] came in with a melting point of 164 to 168 °C.

On to `CCN/C(=N\S(=O)(=O)c1ccc(N)cc1)N1CC2(C=N1)CCNCC2` [Compound 47, 4-Amino-N-[ethylamino-(2,3,8-triaza-spiro[4.5]dec-3-en-2-yl)-methylene]-benzenesulfonamide], for which the “5-HT6 pA2” value on 5-HT6 receptor [1] (setting [7]) turned out to be 8.6.

On to `CCN/C(=N\S(=O)(=O)c1cccc(Cl)c1)N1CC2(C=N1)CCCC2` [Compound 49 from WO 2008/034863, reference compound], for which, at 5-HT6 receptor [1] (setting [9]), the “5-HT6 pA2” value is 8.2. At 5-HT6 receptor [2] (setting [8]), the Ki is 5.01 nM.

`CCN/C(=N\S(=O)(=O)c1ccc2[nH]ccc2c1)N1CC2(C=N1)CCNCC2` [Compound 49]: at 5-HT6 receptor [1] (setting [7]), the “5-HT6 pA2” value is 8.8.

Turning to `CCN/C(=N\S(=O)(=O)c1ccc(O)cc1)N1CC2(C=N1)CCNCC2` [Compound 50], at 5-HT6 receptor [2] (setting [6]), the Ki was 12.6 nM.

Regarding `CCN/C(=N\S(=O)(=O)c1cc(O)cc(Cl)c1)N1CC2(C=N1)CCNCC2` [Compound 52], the melting point is 112 to 114 °C. Also, at 5-HT6 receptor [2] (setting [6]), the Ki is 7.94 nM.

In turn, `CCN/C(=N\S(=O)(=O)c1cc(O)cc(Cl)c1)N1CC(CC)C=N1` (stereo not drawn) [Compound 53] displayed a melting point of 146 to 147 °C. In addition, the Ki at 5-HT6 receptor [2] (setting [6]) is 5.01 nM.

Compound `CCN/C(=N\S(=O)(=O)c1cc(O)cc(Cl)c1)N1CC2(C=N1)CCCC2` [Compound 54] showed a melting point of 157 to 158 °C.

Consider `CCN/C(=N\S(=O)(=O)c1cc(O)cc(Cl)c1)N1CC2(C=N1)CCCCC2` [Compound 55], for which the Kb on 5-HT6 receptor [1] (setting [5]) is 0.2 nM.

In the case of `CCN/C(=N\S(=O)(=O)c1ccc2c(c1)CCN2)N1CC(C)(C)C=N1` [Compound 56], the Ki on 5-HT6 receptor [2] (setting [6]) is 15.8 nM.

Consider `CCN/C(=N\S(=O)(=O)c1ccc2[nH]ccc2c1)N1CC(C)(C)C=N1` [Compound 57], for which, at 5-HT6 receptor [1] (setting [5]), the Kb is 2.51 nM. For the same compound, at 5-HT6 receptor [2] (setting [6]), the Ki was 7.94 nM.

In the case of `CCN/C(=N\S(=O)(=O)c1ccc2c(c1)CCN2)N1CC2(C=N1)CCCCC2` [Compound 59], the Ki at 5-HT6 receptor [2] (setting [6]) was 7.94 nM.

Take `CCN/C(=N\S(=O)(=O)c1ccc2[nH]ccc2c1)N1CC2(C=N1)CCCCC2` [Compound 60]: the Ki on 5-HT6 receptor [2] (setting [6]) was 3.16 nM.
